Source: US20240238422A1 (Osprey Biopharmaceuticals, Inc., priority 2021, published 2024)

Legend:
Siglec-2 (CD22) = details: SAM for Siglec-2 (CD22); value of the cited reference; cited from earlier work
human CD22 = molecular target: T1, human CD22 (Homo sapiens, UniProt P20273); experiment: SPR binding of synthetic Siglec ligands to human CD22 ectodomain (Biacore 8K+); details: for Kd: SPR, alkyne-terminating precursors of the PFP linkers, read-out: Human Siglec-2 Binding Affinity; for Human Siglec-2 Binding Affinity: grade in words for the conjugatable Siglec ligand-linker
T1 construct: Fc (human CD22-Fc fusion); purchased R&D Systems AV11968-050
Description: (§1) The following ligands were evaluated for mouse and human CD22 binding: 1) BPC-Neu5Gc PEG (Cpd. No. 26463), 2) BPC-Neu5Gc GAL (Cpd. No. 26339), 3) MPB-Neu5Ac PEG (Cpd. No. 26334), 4) MPB-Neu5Ac GAL (Cpd. No. 26409), 5) Neu5Gc PEG (Cpd. No. 26591). All tested compounds are alkyne-terminating precursors of PFP-terminating, conjugatable Siglec Linker structures used in conjugates in the following examples.
(§2) Binding assays for synthetic CD22 ligand binding to CD22 receptor ectodomain were run on a Biacore 8K+ instrument (Cytiva). Surface preparation for CD22 conjugates binding to human or mouse CD22 protein consisted of two steps, covalent immobilization of streptavidin followed by capture of Avi-tagged and biotinylated human CD22-Fc fusion (R&D Systems, Cat #AV11968-050) and a mono-Fc fusion of mouse CD22. Using standard amine coupling protocols, Streptavidin (Invitrogen, Cat #: 434301) was immobilized to a Cytiva CM5 chip (Cytiva, Cat #BR100530) by injecting at 100 ug/mL in Sodium Acetate, pH 4.5 (Cytiva, Cat #BR100350) on both flow cells, yielding a final response of 2500 RU. Capture of biotinylated mono Fc human CD22 was performed on channels 1-4 and mouse CD22 on channels 5-8 on the active flow cell (2) and the reference flow cell (1) was kept as unmodified streptavidin to account for any non-specific binding. Human CD22 or mouse CD22 (mono-Fc fusion, 5 μg/mL) was injected on the active flow cell (2) for 90 seconds at 5 μL/min, yielding about 210 RU of captured constructs.
(§3) Binding experiments of Siglec-ligand conjugated proteins were performed on the surfaces prepared above in HBS-EP+ (10 mM HEPES, 150 mM NaCl, 3 mM EDTA, 0.05% Tween-20, pH 7.5) as the running buffer. Conjugates were serially diluted 1:1 in running buffer from 1 μM to 31.25 nM and injected over both the reference and active flow cells for 90 seconds at 30 μL/min. The conjugates were then allowed to dissociate from the surface for 300 seconds. No regeneration was required as the conjugates completely dissociated from the surface after 30 seconds.

mouse CD22 = molecular target: T2, mouse CD22 (Mus musculus, UniProt P35329); experiment: SPR binding of synthetic Siglec ligands to mouse CD22 ectodomain (Biacore 8K+); details: for Kd: SPR, alkyne-terminating precursors of the PFP linkers, read-out: Mouse Siglec-2 Binding Affinity; for Mouse Siglec-2 Binding Affinity: grade in words for the conjugatable Siglec ligand-linker
T2 construct: synthetic Siglec ligands for recombinant human and mouse CD22 ectodomains
T2 sequence (P35329 22-708 limits assumed): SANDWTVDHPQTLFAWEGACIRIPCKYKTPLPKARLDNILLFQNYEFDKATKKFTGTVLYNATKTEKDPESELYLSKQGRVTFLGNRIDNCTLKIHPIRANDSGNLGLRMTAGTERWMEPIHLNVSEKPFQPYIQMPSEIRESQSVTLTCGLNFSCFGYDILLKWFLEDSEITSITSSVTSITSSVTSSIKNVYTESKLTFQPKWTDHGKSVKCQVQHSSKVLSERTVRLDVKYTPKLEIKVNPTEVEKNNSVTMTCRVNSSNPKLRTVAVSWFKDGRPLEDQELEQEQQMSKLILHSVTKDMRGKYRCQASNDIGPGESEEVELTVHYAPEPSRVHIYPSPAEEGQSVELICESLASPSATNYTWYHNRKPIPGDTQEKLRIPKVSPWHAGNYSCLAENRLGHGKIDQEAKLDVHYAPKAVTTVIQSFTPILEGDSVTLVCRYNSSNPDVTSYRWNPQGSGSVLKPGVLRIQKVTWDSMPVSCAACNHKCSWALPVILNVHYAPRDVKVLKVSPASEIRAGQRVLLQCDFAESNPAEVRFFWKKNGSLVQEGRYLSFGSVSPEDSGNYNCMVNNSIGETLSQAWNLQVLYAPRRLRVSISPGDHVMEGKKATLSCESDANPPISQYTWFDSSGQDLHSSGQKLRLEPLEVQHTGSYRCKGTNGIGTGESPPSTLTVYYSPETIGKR
Description: as §1, §2, §3

T1 sequence (P20273 20-687 limits assumed): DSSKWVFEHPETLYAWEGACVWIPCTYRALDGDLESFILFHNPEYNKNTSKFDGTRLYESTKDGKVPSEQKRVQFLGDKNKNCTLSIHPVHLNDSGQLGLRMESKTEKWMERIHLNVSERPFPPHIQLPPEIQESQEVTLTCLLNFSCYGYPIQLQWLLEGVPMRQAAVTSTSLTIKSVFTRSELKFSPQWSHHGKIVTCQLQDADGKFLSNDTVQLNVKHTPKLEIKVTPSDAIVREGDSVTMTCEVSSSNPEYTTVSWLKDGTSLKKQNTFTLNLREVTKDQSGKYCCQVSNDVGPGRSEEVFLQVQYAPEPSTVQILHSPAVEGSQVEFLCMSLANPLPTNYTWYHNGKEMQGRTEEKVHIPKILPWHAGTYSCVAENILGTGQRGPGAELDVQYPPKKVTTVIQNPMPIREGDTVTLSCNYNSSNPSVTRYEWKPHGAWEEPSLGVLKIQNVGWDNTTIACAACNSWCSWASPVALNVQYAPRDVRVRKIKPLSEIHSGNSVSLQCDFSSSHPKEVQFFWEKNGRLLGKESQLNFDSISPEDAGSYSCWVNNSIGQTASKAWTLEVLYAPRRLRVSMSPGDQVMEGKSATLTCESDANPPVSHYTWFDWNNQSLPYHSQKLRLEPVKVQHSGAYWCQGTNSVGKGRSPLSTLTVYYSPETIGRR

Structure (SMILES)	IC50 (Siglec-2 (CD22))	Kd (human CD22)	Kd (mouse CD22)	Human Siglec-2 Binding Affinity (human CD22)	Mouse Siglec-2 Binding Affinity (mouse CD22)
CO[C@]1(C(=O)O)CC(O)[C@@H](NC(C)=O)C([C@H](O)[C@H](O)CNC(=O)c2ccc(-c3ccccc3)cc2)O1 (some centres unmarked)	4 µM	–	–	–	–
O=C(Cc1ccc(-c2ccc(O)cc2)cc1)NC[C@@H](O)C(O)C1O[C@@](OCc2cccc(Cl)c2Cl)(C(=O)O)CC(O)[C@H]1NS(=O)(=O)c1ccccc1[N+](=O)[O-] (some centres unmarked)	0.06 µM	–	–	–	–
CO[C@]1(C(=O)O)CC(NS(=O)(=O)c2ccc(C)cc2)[C@@H](NC(C)=O)C([C@H](O)[C@H](O)CNC(=O)c2ccc(-c3ccccc3)cc2)O1 (some centres unmarked)	0.15 µM	–	–	–	–
C#CCOCCOCCO[C@]1(C(=O)O)C[C@H](O)[C@@H](NC(=O)CO)[C@H]([C@H](O)[C@H](O)CNC(=O)Cc2ccc(-c3ccccc3)cc2)O1 [Cpd. No. 26463, (2R,4S,5R,6R)-6-((1R,2R)-3-(2-([1,1′-biphenyl]-4-yl)acetamido)-1,2-dihydroxypropyl)-4-hydroxy-5-(2-hydroxyacetamido)-2-(2-(2-(prop-2-yn-1-yloxy)ethoxy)ethoxy)tetrahydro-2H-pyran-2-carboxylic acid]	–	1.3 µM	9.6 µM	–	–
O=C(CCOCCOCCn1cc(COCCOCCO[C@]2(C(=O)O)C[C@H](O)[C@@H](NC(=O)CO)[C@H]([C@H](O)[C@H](O)CNC(=O)Cc3ccc(-c4ccccc4)cc3)O2)nn1)NCCCC[C@H](NC(=O)CCCNC(=O)CCOCCOCCn1cc(COCCOCCO[C@]2(C(=O)O)C[C@H](O)[C@@H](NC(=O)CO)[C@H]([C@H](O)[C@H](O)CNC(=O)Cc3ccc(-c4ccccc4)cc3)O2)nn1)C(=O)NCCOCCOCCOCCOCCC(=O)Oc1c(F)c(F)c(F)c(F)c1F [Cpd. No. 26475]	–	–	–	Strong	Strong
O=C(CCOCCOCCn1cc(COCCOCCO[C@]2(C(=O)O)C[C@H](O)[C@@H](NC(=O)CO)[C@H]([C@H](O)[C@H](O)CNC(=O)Cc3ccc(-c4ccccc4)cc3)O2)nn1)NCCCC[C@H](NC(=O)CCCNC(=O)CCOCCOCCn1cc(COCCOCCO[C@]2(C(=O)O)C[C@H](O)[C@@H](NC(=O)CO)[C@H]([C@H](O)[C@H](O)CNC(=O)Cc3ccc(-c4ccccc4)cc3)O2)nn1)C(=O)N[C@@H](CCCCNC(=O)CCOCCOCCn1cc(COCCOCCO[C@]2(C(=O)O)C[C@H](O)[C@@H](NC(=O)CO)[C@H]([C@H](O)[C@H](O)CNC(=O)Cc3ccc(-c4ccccc4)cc3)O2)nn1)C(=O)NCCOCCOCCOCCOCCC(=O)Oc1c(F)c(F)c(F)c(F)c1F [Cpd. No. 26477]	–	–	–	Strong	Strong
O=C(CCOCCOCCOCCOCCn1cc(COCCOCCOCCOCCO)nn1)Oc1c(F)c(F)c(F)c(F)c1F [Cpd. No. 26530, perfluorophenyl 1-(4-(13-hydroxy-2,5,8,11-tetraoxatridecyl)-1H-1,2,3-triazol-1-yl)-3,6,9,12-tetraoxapentadecan-15-oate]	–	–	–	No Binding	No Binding
O=C(CCOCCOCCn1cc(COCCOCCOCCOCCO)nn1)NCCCC[C@@H](NC(=O)CCCNC(=O)CCOCCOCCn1cc(COCCOCCOCCOCCO)nn1)C(=O)NCCOCCOCCOCCOCCC(=O)Oc1c(F)c(F)c(F)c(F)c1F [Cpd. No. 26532, perfluorophenyl (R)-1-(4-(13-hydroxy-2,5,8,11-tetraoxatridecyl)-1H-1,2,3-triazol-1-yl)-16-(4-(3-(2-(2-(4-(13-hydroxy-2,5,8,11-tetraoxatridecyl)-1H-1,2,3-triazol-1-yl)ethoxy)ethoxy)propanamido)butyl)-9,14,17-trioxo-3,6,21,24,27,30-hexaoxa-10,15,18-triazatritriacontan-33-oate]	–	–	–	No Binding	No Binding
O=C(CCOCCOCCn1cc(COCCOCCOCCOCCO)nn1)NCCCC[C@@H](NC(=O)CCCNC(=O)CCOCCOCCn1cc(COCCOCCOCCOCCO)nn1)C(=O)N[C@H](CCCCNC(=O)CCOCCOCCn1cc(COCCOCCOCCOCCO)nn1)C(=O)NCCOCCOCCOCCOCCC(=O)Oc1c(F)c(F)c(F)c(F)c1F [Cpd. No. 26534, perfluorophenyl (16R,19R)-1-(4-(13-hydroxy-2,5,8,11-tetraoxatridecyl)-1H-1,2,3-triazol-1-yl)-16,19-bis(4-(3-(2-(2-(4-(13-hydroxy-2,5,8,11-tetraoxatridecyl)-1H-1,2,3-triazol-1-yl)ethoxy)ethoxy)propanamido)butyl)-9,14,17,20-tetraoxo-3,6,24,27,30,33-hexaoxa-10,15,18,21-tetraazahexatriacontan-36-oate]	–	–	–	No Binding	No Binding
C#CCOCCOCCO[C@]1(C(=O)O)C[C@H](O)[C@@H](NC(=O)CO)[C@H]([C@H](O)[C@H](O)CO)O1 [Cpd. No. 26591, (2R,4S,5R,6R)-4-hydroxy-5-(2-hydroxyacetamido)-2-(2-(2-(prop-2-yn-1-yloxy)ethoxy)ethoxy)-6-((1R,2R)-1,2,3-trihydroxypropyl)tetrahydro-2H-pyran-2-carboxylic acid]	–	> 450 µM	> 1000 µM	–	–
O=C(CO)N[C@H]1[C@H]([C@H](O)[C@H](O)CO)O[C@@](OCCOCCOCc2cn(CCOCCOCCOCCOCCC(=O)Oc3c(F)c(F)c(F)c(F)c3F)nn2)(C(=O)O)C[C@@H]1O [Cpd. No. 26614, (2R,4S,5R,6R)-4-hydroxy-5-(2-hydroxyacetamido)-2-(2-(2-((1-(15-oxo-15-(perfluorophenoxy)-3,6,9,12-tetraoxapentadecyl)-1H-1,2,3-triazol-4-yl)methoxy)ethoxy)ethoxy)-6-((1R,2R)-1,2,3-trihydroxypropyl)tetrahydro-2H-pyran-2-carboxylic acid]	–	–	–	Weak	Weak
O=C(CCOCCOCCn1cc(COCCOCCO[C@]2(C(=O)O)C[C@H](O)[C@@H](NC(=O)CO)[C@H]([C@H](O)[C@H](O)CO)O2)nn1)NCCCC[C@H](NC(=O)CCCNC(=O)CCOCCOCCn1cc(COCCOCCO[C@]2(C(=O)O)C[C@H](O)[C@@H](NC(=O)CO)[C@H]([C@H](O)[C@H](O)CO)O2)nn1)C(=O)NCCOCCOCCOCCOCCC(=O)Oc1c(F)c(F)c(F)c(F)c1F [Cpd. No. 26615]	–	–	–	Weak	Weak
O=C(CCOCCOCCn1cc(COCCOCCO[C@]2(C(=O)O)C[C@H](O)[C@@H](NC(=O)CO)[C@H]([C@H](O)[C@H](O)CO)O2)nn1)NCCCC[C@@H](CN[C@@H](CCCCNC(=O)CCOCCOCCn1cc(COCCOCCO[C@]2(C(=O)O)C[C@H](O)[C@@H](NC(=O)CO)[C@H]([C@H](O)[C@H](O)CO)O2)nn1)C(=O)NCCOCCOCCOCCOCCC(=O)Oc1c(F)c(F)c(F)c(F)c1F)NC(=O)CCCNCCCOCCOCCn1cc(COCCOCCO[C@]2(C(=O)O)C[C@H](O)[C@@H](NC(=O)CO)[C@H]([C@H](O)[C@H](O)CO)O2)nn1 [Cpd. No. 26616]	–	–	–	Weak	Weak
